Results as given in patent US9388389B2, “JFH-1 based HCV cell culture systems for NS5A of genotypes 1-7” (Hvidovre Hospital, priority 2009, dated 2016).
Several values for one entry are separate records, joined by “and”; a condition that tells them apart may be missing. Equal values may be shown once.

Legend:
Huh7.5 cells [1] = test: Infectivity titers (FFU) in supernatant after RNA transfection or viral passage; format: cell-based; conditions: for Transfection Log(FFU/mL) / 1st passage Log(FFU/mL): Table 1b; for Transfection Log(FFU/mL): maximum infectivity titer after transfection, Core-NS2 and NS5A of same genotype; for 1st passage Log(FFU/mL): maximum infectivity titer, two values separated by slash = two independent passages; for Peak titers Transfection Log (FFUs/mL) / Peak titers Viral passage Log (FFUs/mL): Table 2; for Peak titers Transfection Log (FFUs/mL): maximum infectivity titer observed in transfection experiments; for Peak titers Viral passage Log (FFUs/mL): maximum infectivity titer observed in viral passage experiments
Experimental: (§1) To determine the efficiency of the developed system, HCV RNA titers are determined in IU/ml (international units/ml) with Taq-Man Real-Time-PCR and infectious titers are determined with a focus-forming units (FFU) method: in this method, infectivity titers are determined by infection of cell culture replicates with serial dilutions of virus containing supernatants and, following immuno-stainings for HCV antigens, counting of HCV-antigen positive cell foci. Alternatively the infectious titers are determined as 50% tissue culture infectious dose.
(§2) Culturing of Huh7.5 cells was done as described by Gottwein et al. 2007. One day prior to transfection or infection, naïve Huh7.5 cells were plated at 4×10^5/well in 6-well plates. In vitro transcription was carried out for 2 hours with T7 RNA polymerase (Promega) on 5 μg plasmid linearized with XbaI and treated with Mung Bean Nuclease (New England Biolabs, Beverly, Mass., USA) to yield the exact HCV 3′ end. For transfection, 2.5 μg of unpurified RNA transcripts were incubated with 5 μL Lipofectamine2000™ (Invitrogen) in 500 μL Opti-MEM (Invitrogen) for 20 min at room temperature. RNA-Lipofectamine2000™ transfection complexes were left on cells for 16-24 hours before washing. For infection, virus-containing supernatant was left on cells for 6-24 hours. Supernatants collected during experiments were sterile filtered and stored at −80° C.
(§3) Anti-Core immunostaining was done with mouse anti-HCV Core protein monoclonal antibody (B2) (Anogen Mississauga, Ontario, Canada) as primary antibody and Alexa Fluor 594 goat anti-mouse IgG (H+L) (Invitrogen) as secondary antibody. HCV RNA titers were determined by a TaqMan™ real-time PCR assay. Infectivity titers were determined as follows: 6×10^3 naïve Huh7.5 cells were plated per well in a poly-D-lysine coated 96-well plate (Nunc) one day before inoculation with three replicates of individual 10-fold dilutions of cell culture supernatants. Inocula were left on cells for 48 hours and cells were fixed using ice could methanol. After washing, blocking buffer (1% BSA, 0.2% skim milk) was added for 20 min and endogenous peroxidases were inhibited by application of H2O2 for 5 min. Primary antibody (anti-NS3, clone H26, Abcam, Cambridge, UK) diluted 1:1000 was left on cells for 3-4 days. Secondary antibody was ECL anti-mouse IgG HRP-linked whole antibody (GE Healthcare Amersham, Brondby, Denmark). Staining was developed using DAB substrate kit (DAKO, Glostrup, Denmark). The number of focus-forming units (FFU) per well were counted manually (dilutions with 5-100 FFU counted) or automatically. Automatic counting was performed on an ImmunoSpot Series 5 UV Analyzer™ (CTL Europe GmbH, Aalen, Baden-Württemberg, DE) with customized software. From FFU counts in experimental wells, the mean of spot counts of negative control wells was subtracted (typically around 5 spots).

Huh7.5 cells [2] = test: Genetic stability, direct sequencing of complete ORF after passage; conditions: Table 2; ORF sequenced after passage to naïve cells
Experimental: RNA was extracted from cell culture supernatant using (Highly Pure Viral Nucleic Acid Kit™, Roche, Mannheim, Del.). RT-PCR was done using SuperScriptIII™ (Invitrogen, Carlsbad, Calif., USA). In 1st round PCR the Advantage 2 PCR Enzyme System was used. Cycle parameters were 35 s at 99° C., 30 s at 67° C. and 10 min (cycle 1-5), 11 min (cycle 6-15), 12 min (cycle 16-25) or 13 min (cycle 26-35) at 68° C. 12˜1 kb products were synthesized in overlapping nested PCRs covering the entire ORF using primer pairs as previously described. Primer pairs 8, 9 and 10 were modified to the genotype specific NS5A sequence (Table 20, SEQ ID NO 163-192). Cycle parameters were 35 s at 99° C. followed by 35 cycles with 35 s at 99° C., 30 s at 67° C. and 6 min at 68° C.
All sequence reactions were performed at Macrogen Inc., Seoul, South Korea. Sequence analysis was performed with Sequencher™ (Gene Codes Corporation) Vector NTI 11 (Invitrogen) and BioEdit™ (Tom Hall, Ibis Therapeutics). HCV sequences were retrieved from the European HCV database (euHCVdb; at the http: internet location //euhcvdb.ibcp.fr/euHCVdb/) and the Los Alamos HCV sequence database (LANL; at the http: Internet location //hcv.lanl.gov/content/hcv-db/index).
Genetic stability of NS5A recombinants after passage to naïve cells. Supernatant samples from transfection culture were passaged to naïve Huh7.5 cells and the complete ORF was sequenced after spread of infection in culture to check for further need of adaptation.

Huh7.5 cells [3] = test: HCV RNA titers by TaqMan real-time PCR; format: cell-based; conditions: for 1st passage Log(IU/mL): Table 1b, maximum HCV RNA titer, two values separated by slash = two independent passages
Experimental: as §1, §3

Huh7.5 cells [4] = test: Spread of infection in culture, anti-Core immunostaining; format: cell-based; conditions: Huh7.5 cells, after transfection of RNA transcripts
Experimental: as §2, §3

Row | Substance | Transfection Log(FFU/mL) (Huh7.5 cells [1]) | 1st passage Log(FFU/mL) (Huh7.5 cells [1]) | Peak titers Transfection Log (FFUs/mL) (Huh7.5 cells [1]) | Peak titers Viral passage Log (FFUs/mL) (Huh7.5 cells [1]) | Genetically stable (Huh7.5 cells [2]) | infectivity titers in 1st passage / after passage to naïve cells (Huh7.5 cells [1]; naïve Huh7.5 cells) | 1st passage Log(IU/mL) (Huh7.5 cells [3]) | Peak titers Viral passage Log (IU/mL) (Huh7.5 cells [3]; Table 2, maximum HCV RNA titer in all passage samples analyzed) | spread in culture / to the majority of culture, day after transfection (Huh7.5 cells [4]) [days]
1 | J4/JFH12996, 4827(J4-NS5A)3893: J4 Core-NS2/NS5A recombinant with T3893A, SEQ ID NO 48 | 2.5 Log(FFU/mL) | <2.3 Log(FFU/mL) | 2.5 Log (FFUs/mL) | <2.3 Log (FFUs/mL) | Yes | – | – | – | –
2 | J4/JFH12996, 4827(J4-NS5A): JFH1-based recombinant with Core-NS2 and NS5A of genotype 1b J4, SEQ ID NO 47 | – | 1.0 Log(FFU/mL) and 1.3 Log(FFU/mL) | – | – | – | – | – | – | –
3 | QC69/JFH12985(QC69-NS5A): JFH1-based recombinant with Core-NS2 and NS5A of genotype 7a QC69, SEQ ID NO 58 | 2.7 Log(FFU/mL) | 4.1 Log(FFU/mL) | 2.7 Log (FFUs/mL) | 4.1 Log (FFUs/mL) | Yes | above 10^3 FFU/mL | 7.3 Log(IU/mL) | 7.3 Log (IU/mL) | –
4 | S52/JFH12718, 4550(S52-NS5A)7625: S52 Core-NS2/NS5A recombinant with T7625C, SEQ ID NO 50 | 2.9 Log(FFU/mL) | 3.8 Log(FFU/mL) | 2.9 Log (FFUs/mL) | 3.8 Log (FFUs/mL) | Yes | – | – | – | –
5 | S52/JFH12718, 4550(S52-NS5A): JFH1-based recombinant with Core-NS2 and NS5A of genotype 3a S52, SEQ ID NO 49 | 2.1 Log(FFU/mL) and 2.4 Log(FFU/mL) | 3.1 Log(FFU/mL) | – | – | – | – | 7.0 Log(IU/mL) | – | –
6 | SA13/JFH1(SA13-NS5A): SA13 Core-NS2/NS5A recombinant without mutations adaptive for SA13/JFH1, SEQ ID NO 53 | 4.0 Log(FFU/mL) | – | – | – | – | – | – | – | 20
7 | SA13/JFH13405, 3696(SA13-NS5A)6284, 7604: SA13 Core-NS2/NS5A recombinant with A6275G and T7604C, SEQ ID NO 55 | 4.5 Log(FFU/mL) | 3.8 Log(FFU/mL) | 4.5 Log (FFUs/mL) | 3.8 Log (FFUs/mL) | Yes | – | – | – | –
